Laboratory results: PubChem BioAssay (NCI)
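1) Cells in 96-well plates. 2) Compound, 48 h, 5 concentrations. 3) Linear interpolation between surrounding doses. 4) Unreached endpoint = highest concentration. The concentration for 50% growth inhibition is given as GI50. TGI: total growth inhibition.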

Columns and labels:
Experiment in all cases: NCI-60 cell line screen, 48 h
HT29 colon = tested on: HT29 colon
OVCAR-3 ovarian = tested on: OVCAR-3 ovarian
MCF7 breast = tested on: MCF7 breast
NCI/ADR-RES ovarian = tested on: NCI/ADR-RES ovarian
MDA-MB-435 = tested on: MDA-MB-435
K-562 leukemia = tested on: K-562 leukemia
SN12C renal = tested on: SN12C renal
SK-MEL-5 melanoma = tested on: SK-MEL-5 melanoma
UO-31 renal = tested on: UO-31 renal
TK-10 renal = tested on: TK-10 renal
OVCAR-4 ovarian = tested on: OVCAR-4 ovarian
IGROV1 ovarian = tested on: IGROV1 ovarian
SK-MEL-2 melanoma = tested on: SK-MEL-2 melanoma
PC-3 prostate = tested on: PC-3 prostate
LOX IMVI melanoma = tested on: LOX IMVI melanoma
HOP-92 NSCLC = tested on: HOP-92 NSCLC
SF-539 CNS = tested on: SF-539 CNS
COLO 205 colon = tested on: COLO 205 colon
MOLT-4 leukemia = tested on: MOLT-4 leukemia
786-0 renal = tested on: 786-0 renal
HCT-15 colon = tested on: HCT-15 colon
SF-295 CNS = tested on: SF-295 CNS
RXF 393 renal = tested on: RXF 393 renal
T-47D breast = tested on: T-47D breast
OVCAR-8 ovarian = tested on: OVCAR-8 ovarian
U251 CNS = tested on: U251 CNS
ACHN renal = tested on: ACHN renal
UACC-257 melanoma = tested on: UACC-257 melanoma

Compound: COc1cc2cc(Oc3ccc(NC(=O)c4cccc(C(F)(F)F)c4)cc3)c(C)nc2cc1OC
- GI50 (HT29 colon): 6.65 µM
- TGI (HT29 colon): > 100 µM
- GI50 (OVCAR-3 ovarian): 3.96 µM
- TGI (OVCAR-3 ovarian): 45.5 µM
- GI50 (MCF7 breast): 3.47 µM
- TGI (MCF7 breast): 24.3 µM
- GI50 (NCI/ADR-RES ovarian): 4.02 µM
- TGI (NCI/ADR-RES ovarian): > 100 µM
- GI50 (MDA-MB-435): 5.39 µM
- TGI (MDA-MB-435): > 100 µM
- GI50 (K-562 leukemia): 4.25 µM
- TGI (K-562 leukemia): > 100 µM
- GI50 (SN12C renal): 6.39 µM
- TGI (SN12C renal): > 100 µM
- GI50 (SK-MEL-5 melanoma): 2.45 µM
- TGI (SK-MEL-5 melanoma): 8.84 µM
- GI50 (UO-31 renal): 4.59 µM
- TGI (UO-31 renal): > 100 µM
- GI50 (TK-10 renal): 5.18 µM
- TGI (TK-10 renal): > 100 µM
- GI50 (OVCAR-4 ovarian): 3.68 µM
- TGI (OVCAR-4 ovarian): > 100 µM
- GI50 (IGROV1 ovarian): 6.78 µM
- TGI (IGROV1 ovarian): > 100 µM
- GI50 (SK-MEL-2 melanoma): 5.11 µM
- TGI (SK-MEL-2 melanoma): > 100 µM
- GI50 (PC-3 prostate): 2.85 µM
- TGI (PC-3 prostate): > 100 µM
- GI50 (LOX IMVI melanoma): 4.36 µM
- TGI (LOX IMVI melanoma): > 100 µM
- GI50 (HOP-92 NSCLC): 3.08 µM
- TGI (HOP-92 NSCLC): 33.2 µM
- GI50 (SF-539 CNS): 8.35 µM
- TGI (SF-539 CNS): > 100 µM
- GI50 (COLO 205 colon): 4.65 µM
- TGI (COLO 205 colon): > 100 µM
- GI50 (MOLT-4 leukemia): 4.72 µM
- TGI (MOLT-4 leukemia): > 100 µM
- GI50 (786-0 renal): 5.31 µM
- TGI (786-0 renal): > 100 µM
- GI50 (HCT-15 colon): 4.65 µM
- TGI (HCT-15 colon): > 100 µM
- GI50 (SF-295 CNS): 2.73 µM
- TGI (SF-295 CNS): > 100 µM
- GI50 (RXF 393 renal): 6.07 µM
- TGI (RXF 393 renal): > 100 µM
- GI50 (T-47D breast): 3.23 µM
- TGI (T-47D breast): > 100 µM
- GI50 (OVCAR-8 ovarian): 6.91 µM
- TGI (OVCAR-8 ovarian): > 100 µM
- GI50 (U251 CNS): 4.44 µM
- TGI (U251 CNS): > 100 µM
- GI50 (ACHN renal): 3.6 µM
- TGI (ACHN renal): > 100 µM
- GI50 (UACC-257 melanoma): 5.41 µM
- TGI (UACC-257 melanoma): > 100 µM
